The values that follow come from PubChem BioAssay (NCI).

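Values below derive from 48-hour exposures of cells grown in 96-well plates, with endpoints linearly interpolated between the two concentrations bracketing the appropriate inhibition level. Definition used: TGI = concentration required for complete inhibition of growth.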 Where only a bound is given, the exact number is not on record here.

Test systems include NCI/ADR-RES ovarian; T-47D breast; HCC-2998 colon; SN12C renal; UACC-257 melanoma; LOX IMVI melanoma; SW-620 colon; RXF 393 renal; COLO 205 colon; SF-268 CNS; MDA-MB-435; M14 melanoma; HCT-15 colon.
Common to all, as to assay: NCI tumour cell line growth inhibition, 48 h

Take `Cc1cc(C)nc(NS(=O)(=O)c2ccc(NC(=O)NC(F)(F)F)cc2)n1`: the TGI in the experiment with NCI/ADR-RES ovarian, in the experiment on T-47D breast, in the experiment on HCC-2998 colon, in the experiment with SN12C renal, in the experiment with UACC-257 melanoma and with LOX IMVI melanoma was greater than 100 µM each time. For the same compound, the TGI in the experiment on SW-620 colon, with RXF 393 renal, in the experiment with COLO 205 colon, with SF-268 CNS, in the experiment on MDA-MB-435 and in the experiment on M14 melanoma was greater than 100 µM in each case. The same compound gave a TGI with HCT-15 colon greater than 100 µM.
Turning to `COc1cc(C2OC[C@@H]3C(=O)OC[C@H]23)cc(O)c1OC` (some centres undefined), the TGI with NCI/ADR-RES ovarian, in the experiment with T-47D breast, in the experiment with HCC-2998 colon, in the experiment on SN12C renal, in the experiment with UACC-257 melanoma and in the experiment with LOX IMVI melanoma was greater than 100 µM throughout. The TGI in the experiment on SW-620 colon, in the experiment on RXF 393 renal, in the experiment with COLO 205 colon, with SF-268 CNS, with MDA-MB-435 and in the experiment on M14 melanoma was greater than 100 µM throughout. The TGI in the experiment with HCT-15 colon is greater than 100 µM.
Consider `CCNc1nnc(-c2ccccc2Nc2ccccc2-c2nnc(NCC)s2)s1`, for which the TGI in the experiment with NCI/ADR-RES ovarian was greater than 100 µM; with T-47D breast, greater than 84.8 µM; in the experiment with HCC-2998 colon, 27.8 µM; in the experiment with SN12C renal, greater than 49.7 µM; with UACC-257 melanoma, 90.3 µM; in the experiment with LOX IMVI melanoma, 38.5 µM. Further, the TGI in the experiment on SW-620 colon is greater than 100 µM; with RXF 393 renal it was 85.8 µM; with COLO 205 colon it was greater than 53.9 µM; in the experiment with SF-268 CNS, 68.6 µM; in the experiment with MDA-MB-435 it was 71.4 µM; with M14 melanoma, 40 µM. Besides, in the experiment with HCT-15 colon, the TGI is greater than 45.2 µM.
